Assay results from ChEMBL document CHEMBL5233243, “Design and discovery of boronic acid drugs” (Eur J Med Chem, 2020).
pIC50, pKi: −log10 of the molar value. In brackets after ≈: the same amount, converted by molar mass. Residues, ends and D or L forms follow the SMILES beside them. *: point of attachment. CF3 = FC(F)(F)*; Moc = COC(=O)*

Legend:
[1] = Inhibition of beta-lactamase AmpC (unknown origin); parameters: species or system Bacteria
Escherichia coli = assay: Antibacterial activity against Escherichia coli; assay type: functional
[2] = target: Human immunodeficiency virus type 1 protease (Human immunodeficiency virus 1, UniProt Q72874); assay: Inhibition of HIV-1 protease
[3] = test system: Human immunodeficiency virus; assay: Antiviral activity against HIV infected in human MT-2 cells; assay type: functional, organism-based; conditions: Human immunodeficiency virus 1, MT2
Autotaxin = Autotaxin (Homo sapiens, UniProt Q13822); assay: Inhibition of autotaxin (unknown origin)
[4] = Solubility of compound at pH 2; assay type: physicochemical; conditions: buffer
Neutrophil elastase = target: T1, Neutrophil elastase (Homo sapiens, UniProt P08246); assay: Inhibition of human neutrophil elastase
T1 sequence (P08246 whole entry): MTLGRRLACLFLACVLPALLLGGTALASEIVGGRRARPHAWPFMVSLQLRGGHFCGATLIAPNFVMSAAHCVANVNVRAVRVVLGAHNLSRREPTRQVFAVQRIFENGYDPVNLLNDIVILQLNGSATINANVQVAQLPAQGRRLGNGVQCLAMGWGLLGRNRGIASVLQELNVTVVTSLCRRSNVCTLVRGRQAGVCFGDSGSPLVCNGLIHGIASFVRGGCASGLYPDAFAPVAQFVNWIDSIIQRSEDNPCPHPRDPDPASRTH

MCF7 = assay: Antiproliferative activity against human MCF7 cells assessed as inhibition of cell growth incubated for 48 hrs by SRB assay; assay type: functional, cell-based; conditions: MCF7, 48 h

OB(O)c1cnn(-c2cc(Cl)ncn2)c1
pKi [1]: 8.00
MIC (Escherichia coli): 1 µg/mL (≈ 4.46 µM)

O=S(=O)(Cc1ccc(-c2nnn[nH]2)nc1)NCB(O)O
pKi [1]: 9.10

CC(C)CN(C[C@@H](O)[C@H](Cc1ccccc1)NC(=O)O[C@H]1CO[C@H]2OCC[C@H]21)S(=O)(=O)c1ccc(C(=O)O)cc1
pKi [2]: 10.89
pIC50 [3]: < 6.00

CC(C)CN(C[C@@H](O)[C@H](Cc1ccccc1)NC(=O)OC1C2COC3OCC1C3C2)S(=O)(=O)c1ccc(B(O)O)cc1 (stereo partly drawn)
pKi [2]: 10.81
pIC50 [3]: 7.42

COc1cc(/C=C2\SC(=O)N(Cc3ccc(F)cc3)C2=O)ccc1OCc1ccc(B(O)O)cc1
pIC50 (Autotaxin): 7.55

COc1ccc(/C=C\c2cc(OC)c(OC)c(OC)c2)cc1B(O)O
solubility [4]: 33.8 µg/mL (≈ 98.2 µM)

COC(=O)N[C@H](C(=O)N1CCC[C@H]1C(=O)N[C@H](B(O)O)C(C)C)C(C)C
pIC50 (Neutrophil elastase): 9.57

COc1ccc(/C=C\c2cc(OC)c(OC)c(OC)c2)cc1O [COMBRETASTATIN A4]
pIC50 (MCF7): 7.49
solubility [4]: 18.9 µg/mL (≈ 59.7 µM)

COC(=O)N[C@H](C(=O)N1CCC[C@H]1C(=O)N[C@H](C(=O)C(F)(F)F)C(C)C)C(C)C (Moc-Val-Pro-Val-CF3)
pIC50 (Neutrophil elastase): 6.87
